According to ChEMBL document CHEMBL3352629, “Hydroxamic acid based histone deacetylase inhibitors with confirmed activity against the malaria parasite” (Bioorg Med Chem Lett, 2015):
The source made the active and inactive calls. The rule behind the calls is not given here. Square brackets hold non-standard residues; d marks the D form. Peptide text beside a SMILES is read from it. * marks the point of attachment. Asu = N[C@@H](CCCCCC(=O)O)C(=O)O; pGlu = O=C1CC[C@@H](C(=O)O)N1; NHPh = c1ccc(N*)cc1; NHOH = ON*

Columns and labels:
Plasmodium falciparum [1] = test: Antiprotozoan activity against Plasmodium falciparum infected in mouse assessed as reduction in parasite growth at 50 mg/kg, ip QD for 4 days; type: functional; conditions: 96 h, route intraperitoneal
[2] = molecular target: T1, Protein deacetylase HDAC6 (Homo sapiens, UniProt Q9UBN7); test: Inhibition of human HDAC6 using RHKK(Ac) as substrate by fluorimetric analysis
T1 sequence (Q9UBN7 whole entry): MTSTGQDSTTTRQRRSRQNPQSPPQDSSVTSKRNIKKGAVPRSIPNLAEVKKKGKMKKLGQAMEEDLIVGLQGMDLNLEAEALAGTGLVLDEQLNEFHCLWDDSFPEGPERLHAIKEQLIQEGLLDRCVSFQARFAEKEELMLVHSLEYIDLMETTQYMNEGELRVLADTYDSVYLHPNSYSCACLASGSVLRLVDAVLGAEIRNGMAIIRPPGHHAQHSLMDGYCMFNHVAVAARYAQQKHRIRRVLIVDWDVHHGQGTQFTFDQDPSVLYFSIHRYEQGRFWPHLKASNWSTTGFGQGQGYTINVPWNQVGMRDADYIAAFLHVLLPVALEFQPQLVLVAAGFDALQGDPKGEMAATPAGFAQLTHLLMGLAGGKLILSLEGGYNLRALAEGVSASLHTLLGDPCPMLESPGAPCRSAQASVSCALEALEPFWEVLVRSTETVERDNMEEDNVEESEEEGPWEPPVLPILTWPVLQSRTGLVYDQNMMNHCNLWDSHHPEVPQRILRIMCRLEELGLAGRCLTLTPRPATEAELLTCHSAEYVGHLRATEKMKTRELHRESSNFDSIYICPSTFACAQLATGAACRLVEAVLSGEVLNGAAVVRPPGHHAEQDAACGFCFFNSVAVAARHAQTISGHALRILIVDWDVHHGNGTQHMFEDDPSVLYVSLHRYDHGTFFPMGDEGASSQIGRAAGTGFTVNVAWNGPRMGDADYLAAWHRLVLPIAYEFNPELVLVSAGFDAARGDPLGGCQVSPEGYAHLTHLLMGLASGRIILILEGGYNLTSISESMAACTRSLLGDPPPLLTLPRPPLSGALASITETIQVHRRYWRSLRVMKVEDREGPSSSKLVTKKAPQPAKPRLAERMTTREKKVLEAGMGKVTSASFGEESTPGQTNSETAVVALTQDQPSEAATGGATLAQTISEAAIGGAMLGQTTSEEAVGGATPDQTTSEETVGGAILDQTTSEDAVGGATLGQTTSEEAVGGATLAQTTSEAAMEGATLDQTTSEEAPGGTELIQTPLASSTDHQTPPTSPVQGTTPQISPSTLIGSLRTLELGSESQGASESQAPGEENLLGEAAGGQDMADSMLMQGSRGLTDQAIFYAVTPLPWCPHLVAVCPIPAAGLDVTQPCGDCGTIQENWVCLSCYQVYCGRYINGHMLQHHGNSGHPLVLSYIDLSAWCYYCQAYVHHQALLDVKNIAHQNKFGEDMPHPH

[3] = molecular target: T2, Polyamine deacetylase HDAC10 (Homo sapiens, UniProt Q969S8); test: Inhibition of human HDAC10 using RHKK(Ac) as substrate by fluorimetric analysis
T2 sequence (Q969S8 whole entry): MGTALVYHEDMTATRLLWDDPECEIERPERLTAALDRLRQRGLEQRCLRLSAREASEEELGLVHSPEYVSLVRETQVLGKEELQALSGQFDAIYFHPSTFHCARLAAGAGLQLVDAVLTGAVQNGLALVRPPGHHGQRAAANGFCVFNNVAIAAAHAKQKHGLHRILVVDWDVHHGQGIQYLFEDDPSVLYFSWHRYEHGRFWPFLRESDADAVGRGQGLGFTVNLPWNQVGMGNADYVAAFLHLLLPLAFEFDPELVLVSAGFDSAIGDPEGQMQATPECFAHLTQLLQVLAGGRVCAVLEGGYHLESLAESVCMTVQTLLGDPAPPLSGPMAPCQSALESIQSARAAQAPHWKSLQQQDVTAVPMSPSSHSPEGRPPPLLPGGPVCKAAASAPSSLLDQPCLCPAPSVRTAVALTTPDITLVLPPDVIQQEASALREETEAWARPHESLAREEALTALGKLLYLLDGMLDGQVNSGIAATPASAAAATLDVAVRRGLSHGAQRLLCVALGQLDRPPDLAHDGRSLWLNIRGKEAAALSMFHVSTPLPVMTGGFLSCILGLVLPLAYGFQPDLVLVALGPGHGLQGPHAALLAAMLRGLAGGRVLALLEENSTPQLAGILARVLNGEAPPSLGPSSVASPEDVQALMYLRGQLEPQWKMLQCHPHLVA

Plasmodium falciparum [4] = test: Antiprotozoan activity against Plasmodium falciparum NF54 IEF forms; type: functional, organism-based
L6 = test: Cytotoxicity against rat L6 cells; type: ADME, cell-based
[5] = test system: Trypanosoma brucei rhodesiense; test: Antiprotozoan activity against Trypanosoma brucei rhodesiense STIB 900 trypomastigotes; type: functional, organism-based
Histone deacetylase 8 = molecular target: T3, Histone deacetylase 8 (Homo sapiens, UniProt Q9BY41); test: Inhibition of human HDAC8 using RHK(Ac)K(Ac) as substrate by fluorimetric analysis
T3 sequence (Q9BY41 whole entry): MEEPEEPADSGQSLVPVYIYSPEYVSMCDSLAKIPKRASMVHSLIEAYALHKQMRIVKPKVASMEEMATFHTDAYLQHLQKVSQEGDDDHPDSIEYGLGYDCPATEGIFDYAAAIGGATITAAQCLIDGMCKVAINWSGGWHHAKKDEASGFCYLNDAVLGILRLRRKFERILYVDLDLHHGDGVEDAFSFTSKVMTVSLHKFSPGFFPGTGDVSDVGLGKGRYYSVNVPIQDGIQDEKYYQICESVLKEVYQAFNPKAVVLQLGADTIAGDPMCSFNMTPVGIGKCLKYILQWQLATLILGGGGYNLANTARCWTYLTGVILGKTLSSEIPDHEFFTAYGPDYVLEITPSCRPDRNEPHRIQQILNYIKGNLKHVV

Trypanosoma cruzi = test: Antiprotozoan activity against Trypanosoma cruzi Tulahuen C4 amastigotes; type: functional, organism-based
Histone deacetylase 3 = Histone deacetylase 3 (Homo sapiens, UniProt O15379); test: Inhibition of human HDAC3 using RHKK(Ac) as substrate by fluorimetric analysis
Histone deacetylase 1 = Histone deacetylase 1 (Homo sapiens, UniProt Q13547); test: Inhibition of human HDAC1 using RHKK(Ac) as substrate by fluorimetric analysis
Histone deacetylase 2 = Histone deacetylase 2 (Homo sapiens, UniProt Q92769); test: Inhibition of human HDAC2 using RHKK(Ac) as substrate by fluorimetric analysis
NCI-H460 = test: Cytotoxicity against human NCI-H460 cells; type: functional, cell-based
Histone deacetylase 11 = molecular target: T4, Histone deacetylase 11 (Homo sapiens, UniProt Q96DB2); test: Inhibition of human HDAC11 using RHKK(Ac) as substrate by fluorimetric analysis
T4 sequence (Q96DB2 whole entry): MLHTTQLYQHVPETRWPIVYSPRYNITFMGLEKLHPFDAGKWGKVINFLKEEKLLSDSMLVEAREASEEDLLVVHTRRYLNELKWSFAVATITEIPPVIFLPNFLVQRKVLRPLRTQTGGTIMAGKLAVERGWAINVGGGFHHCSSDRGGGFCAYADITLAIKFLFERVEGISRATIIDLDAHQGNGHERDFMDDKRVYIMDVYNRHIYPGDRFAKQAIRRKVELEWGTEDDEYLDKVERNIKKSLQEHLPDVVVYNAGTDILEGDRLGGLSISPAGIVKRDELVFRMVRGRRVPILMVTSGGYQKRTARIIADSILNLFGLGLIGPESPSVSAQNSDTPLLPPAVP

Giardia intestinalis = test: Antiprotozoan activity against Giardia lamblia G1; type: functional, organism-based; conditions: Giardia duodenalis
Leishmania donovani [6] = test: Antiprotozoan activity against Leishmania donovani MHOM- ET-67/L82 amastigotes at 1 uM; type: functional, organism-based
Leishmania donovani [7] = test: Antiprotozoan activity against Leishmania donovani MHOM- ET-67/L82 amastigotes; type: functional, organism-based
Plasmodium falciparum [8] = test: Antiprotozoan activity against Plasmodium falciparum infected in mouse assessed as mouse survival at 50 mg/kg, ip QD for 4 days; type: functional; conditions: route intraperitoneal
[9] = Leishmania donovani, MHOM- ET-67/L82, read-out: IC50

Histone deacetylase 2, sequence (Q92769 whole entry): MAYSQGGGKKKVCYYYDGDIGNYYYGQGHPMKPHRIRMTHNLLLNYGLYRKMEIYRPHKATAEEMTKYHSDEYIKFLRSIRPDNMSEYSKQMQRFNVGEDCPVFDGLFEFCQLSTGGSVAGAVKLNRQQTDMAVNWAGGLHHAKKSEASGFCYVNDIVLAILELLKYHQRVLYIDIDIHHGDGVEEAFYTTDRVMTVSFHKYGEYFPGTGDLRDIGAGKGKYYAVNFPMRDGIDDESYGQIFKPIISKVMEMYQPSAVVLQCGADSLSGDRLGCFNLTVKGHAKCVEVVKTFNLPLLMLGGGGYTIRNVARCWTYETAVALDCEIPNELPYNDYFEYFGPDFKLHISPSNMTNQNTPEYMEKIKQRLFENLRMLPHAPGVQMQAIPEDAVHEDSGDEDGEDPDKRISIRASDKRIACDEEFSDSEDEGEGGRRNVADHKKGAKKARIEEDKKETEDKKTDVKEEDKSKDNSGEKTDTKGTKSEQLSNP
Histone deacetylase 3, sequence (O15379 whole entry): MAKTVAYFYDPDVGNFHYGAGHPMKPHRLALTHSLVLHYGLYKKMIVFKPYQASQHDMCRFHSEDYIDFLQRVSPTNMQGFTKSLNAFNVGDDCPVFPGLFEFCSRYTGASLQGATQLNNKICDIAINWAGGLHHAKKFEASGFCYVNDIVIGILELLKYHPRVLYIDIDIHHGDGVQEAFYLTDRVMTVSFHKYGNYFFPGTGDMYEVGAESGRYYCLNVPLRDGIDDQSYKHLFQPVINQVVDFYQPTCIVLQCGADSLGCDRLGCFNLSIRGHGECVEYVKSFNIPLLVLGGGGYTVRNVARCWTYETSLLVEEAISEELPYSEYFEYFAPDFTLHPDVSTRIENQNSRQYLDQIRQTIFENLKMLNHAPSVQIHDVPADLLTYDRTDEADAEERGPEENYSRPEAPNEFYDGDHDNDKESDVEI
Histone deacetylase 1, sequence (Q13547 whole entry): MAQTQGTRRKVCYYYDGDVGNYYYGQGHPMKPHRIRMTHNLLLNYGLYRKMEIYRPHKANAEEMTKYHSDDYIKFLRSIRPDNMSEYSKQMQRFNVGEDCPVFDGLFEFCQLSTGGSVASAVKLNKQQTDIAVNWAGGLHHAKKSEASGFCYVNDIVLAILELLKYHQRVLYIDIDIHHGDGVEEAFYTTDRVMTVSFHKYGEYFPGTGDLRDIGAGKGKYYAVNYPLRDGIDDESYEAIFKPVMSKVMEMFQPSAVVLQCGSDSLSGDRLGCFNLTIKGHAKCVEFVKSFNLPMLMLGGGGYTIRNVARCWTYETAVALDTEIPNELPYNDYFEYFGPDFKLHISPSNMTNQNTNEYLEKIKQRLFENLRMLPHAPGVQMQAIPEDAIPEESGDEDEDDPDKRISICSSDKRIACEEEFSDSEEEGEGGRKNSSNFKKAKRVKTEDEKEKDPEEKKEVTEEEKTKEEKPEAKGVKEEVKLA

Structure (SMILES) | inhibition in vivo at 50 mg/kg (Plasmodium falciparum [1]) [%] | IC50 (Plasmodium falciparum [4]) [nM] | IC50 (L6) [nM] | IC50 [5] [µM] | IC50 (Trypanosoma cruzi) [µM] | IC50 (Giardia intestinalis) [µM] | other results
C[C@H]1[C@@H](O)O[C@@H]2O[C@@]3(C)CC[C@H]4[C@H](C)CC[C@@H]1[C@@]24OO3 [ARTENIMOL] | 99.8 | – | – | – | – | – | –
O=C(CCCCC[C@H](NC(=O)[C@@H]1CC(=O)N1)C(=O)Nc1ccccc1)NO | – | 23 | 7460 | 6.04 | 33 | 12.8 | IC50 [2]: 6 nM; IC50 [3]: 125 nM; IC50 (Histone deacetylase 8): 137 nM; IC50 (Histone deacetylase 3): 88 nM; IC50 (Histone deacetylase 1): 59 nM; IC50 (Histone deacetylase 2): 143 nM; IC50 (NCI-H460): 5400 nM; IC50 (Histone deacetylase 11): 37 nM
O=C(Cn1ccnc1[N+](=O)[O-])NCc1ccccc1 [BENZNIDAZOLE] | – | – | – | – | 2.13 | – | –
COc1cc([C@@H]2c3cc4c(cc3[C@H](O)[C@H]3COC(=O)[C@H]23)OCO4)cc(OC)c1OC [PODOFILOX] | – | – | 19 | – | – | – | –
CC(=O)SCCCCC[C@H](NC(=O)[C@H]1CCC(=O)N1)C(=O)Nc1cccc(C(F)(F)F)c1 | – | 3240 | 91 | 2.38 | 3.98 | 40.9 | Activity (Leishmania donovani [6]): inactive; IC50 (Leishmania donovani [7]): Not Active
CC(=O)SCCCCC[C@H](NC(=O)[C@H]1CCC(=O)N1)C(=O)Nc1ccccc1 | – | 6570 | 189 | 2.51 | 2.1 | 8.11 | Activity (Leishmania donovani [6]): inactive; IC50 (Leishmania donovani [7]): Not Active; IC50 (NCI-H460): 66 nM
O=C(CCCCCCC(=O)Nc1ccccc1)NO [VORINOSTAT] | – | 25 | – | – | 10.1 | – | Activity (Leishmania donovani [6]): inactive
O=C1CC[C@H](C(=O)N[C@@H](CCCCCS)C(=O)Nc2cccc(C(F)(F)F)c2)N1 | – | 3260 | 2670 | 4.75 | 19.1 | 64.8 | IC50 (Leishmania donovani [7]; [9]): > 3 µM
O=C(CCCCC[C@H](NC(=O)[C@@H]1CCC(=O)N1)C(=O)Nc1ccccc1)NO ([pGlu]-[Asu](NHOH)-NHPh) | 87.5 | 19 | 75100 | 19.9 | 48.4 | 10.7 | IC50 [2]: 3 nM; IC50 [3]: 113 nM; IC50 (Histone deacetylase 8): 93 nM; IC50 (Histone deacetylase 3): 62 nM; IC50 (Histone deacetylase 1): 34 nM; IC50 (Histone deacetylase 2): 89 nM; IC50 (NCI-H460): 2200 nM; IC50 (Histone deacetylase 11): 13 nM
C[C@@H]1CC[C@H]2[C@@H](C)C(=O)O[C@@H]3O[C@@]4(C)CC[C@@H]1[C@]32OO4 [ARTEMISININ] | 99.9 | – | – | – | – | – | Survival (Plasmodium falciparum [8]): >30 days
O=C1CC[C@H](C(=O)N[C@@H](CCCCCS)C(=O)Nc2ccccc2)N1 | – | 9660 | 5250 | 3.23 | 25.8 | 12.3 | IC50 [2]: 3 nM; IC50 [3]: 11 nM; IC50 (Histone deacetylase 8): 281 nM; IC50 (Leishmania donovani [7]; [9]): > 10 µM; IC50 (Histone deacetylase 3): 5 nM; IC50 (Histone deacetylase 1): 13 nM; IC50 (Histone deacetylase 2): 78 nM; IC50 (Histone deacetylase 11): 14 nM
Cc1ncc([N+](=O)[O-])n1CCO [METRONIDAZOLE] | – | – | – | – | – | 0.58 | –
CCCCCCCCCCCCCCCCOP(=O)([O-])OCC[N+](C)(C)C [MILTEFOSINE] | – | – | – | – | – | – | IC50 (Leishmania donovani [7]; [9]): 3.15 µM
Cc1cccc(NC(=O)[C@H](CCCCCC(=O)NO)NC(=O)[C@H]2CCC(=O)N2)c1 | 33.8 | 6 | 1230 | 5.51 | 0.849 | 4.64 | IC50 (Histone deacetylase 11): 15 nM
O=C(CCCCC[C@H](NC(=O)[C@H]1CCC(=O)N1)C(=O)Nc1cccc(C(F)(F)F)c1)NO | 63.2 | 3 | 638 | 4.16 | 0.972 | 4.27 | –
